# In patent US12642271B2, “Active compound combinations comprising a (thio)carboxamide derivative and a fungicidal compound” (Bayer CropScience Aktiengesellschaft, priority 2011, dated 2026):
# “And” between values parts separate entries of the source, which are not always exact repeats. Identical values can stand only once. Like-named read-outs stand apart in the source and are kept apart here.
# Experiments:
# Puccinia triticina = assay: Puccinia triticina-test (wheat)/preventive; type: in vivo; conditions: preventive, evaluated 8 days after inoculation
# Sphaerotheca fuliginea = assay: Sphaerotheca test (cucumbers)/preventive; type: in vivo
# Leptosphaeria nodorum = Leptosphaeria nodorum test (wheat)/preventive; type: in vivo
# Alternaria solani = assay: Alternaria test (tomatoes)/preventive; type: in vivo
# [1] = test system: Fusarium nivale (var. majus); assay: Fusarium nivale (var. majus)-test (wheat)/preventive; conditions: for pest or weed control at 20 ppm / pest or weed control at 80 ppm / pest or weed control at 40 ppm / pest or weed control at 10 ppm: Microdochium nivale, in Triticum aestivum, 120 h; for pest or weed control at 20 ppm: 20 ppm a.i.; for pest or weed control at 80 ppm: 80 ppm a.i.
# Protocol: After the spray coating has been dried, the plants are slightly injured by using a sandblast and afterwards they are sprayed with a conidia suspension of Fusarium nivale (var. majus).
# The plants are placed in the greenhouse under a translucent incubation cabinet at a temperature of approximately 10° C. and a relative atmospheric humidity of approximately 100%.
# The test is evaluated 5 days after the inoculation.
# Venturia inaequalis = assay: Venturia test (apples)/preventive; conditions: for pest or weed control at 1 ppm: 1 ppm a.i.
# Protocol: After the spray coating has dried on, the plants are inoculated with an aqueous conidia suspension of the causal agent of apple scab (Venturia inaequalis) and then remain for 1 day in an incubation cabinet at approximately 20° C. and a relative atmospheric humidity of 100%.
# The plants are then placed in a greenhouse at approximately 21° C. and a relative atmospheric humidity of approximately 90%.
# The test is evaluated 10 days after the inoculation.
# Septoria tritici = assay: Septoria tritici-test (wheat)/preventive; type: in vivo; conditions: preventive, evaluated 21 days after inoculation
# [2] = test system: Blumeria graminis f.sp. hordei; assay: Blumeria test (barley)/preventive; type: in vivo
# Phytophthora infestans = assay: whole plant or invertebrate; type: in vivo
# [3] = read-out: Efficacy in % found, Table 8c
# [4] = read-out: Efficacy in % found, Table 8e
# [5] = Zymoseptoria tritici, 504 h, application rate 10 ppm a.i., read-out: Efficacy in % found
# [6] = read-out: Efficacy in % found, Table 8e, 40 ppm a.i.
# [7] = Parastagonospora nodorum, 192 h, application rate 10 ppm, wheat, preventive, evaluated 8 days after inoculation, read-out: Efficacy in % found
# [8] = Blumeria graminis, 168 h, Table 6f, 10 ppm a.i., read-out: Efficacy in % found
# [9] = Phytophthora infestans, 72 h, read-out: Efficacy in % found
compound,measurement,setting,value
spiroxamine [B1.46],Efficacy in % found,Puccinia triticina; application rate 200 ppm a.i.,0%
same,Efficacy in % found,"Sphaerotheca fuliginea; Table 4b, 25 ppm a.i.",0%
same,Efficacy in % found,"Leptosphaeria nodorum; Table 9a, 200 ppm a.i.",29%
same,Efficacy in % found,"Leptosphaeria nodorum; application rate 200 ppm, wheat, preventive, evaluated 8 days after inoculation",22% and 40%
folpet [B5.16],Efficacy in % found,"Alternaria solani; Table 3e, 12.5 ppm",39%
same,Efficacy in % found,"[1]; Table 8f, 200 ppm a.i.",50%
same,Efficacy in % found,"Sphaerotheca fuliginea; Table 4a, 25 ppm a.i.",0%
same,Efficacy in % found,"Leptosphaeria nodorum; application rate 400 ppm a.i., wheat, preventive, evaluated 8 days after inoculation",44%
same,Efficacy in % found,"Venturia inaequalis; Table 2a, 12.5 ppm a.i.",47%
same,Efficacy in % found,"Venturia inaequalis; Table 2e, 10 ppm a.i.",45%
"Cn1cc(C(=O)Nc2ccc(F)cc2-c2ccc(Cl)c(Cl)c2)c(C(F)F)n1 [B2.1, bixafen]",Efficacy in % found,Puccinia triticina; application rate 40 ppm a.i.,22%
same,Efficacy in % found,Septoria tritici; application rate 10 ppm a.i.,29%
same,Efficacy in % found,Septoria tritici; application rate 40 ppm a.i.,29%
same,Efficacy in % found,"[1]; Table 8b, 10 ppm a.i.",14%
same,Efficacy in % found,"Sphaerotheca fuliginea; Table 4d, 0.5 ppm a.i.",67%
same,Efficacy in % found,"Leptosphaeria nodorum; Table 9a, 40 ppm a.i.",0%
same,Efficacy in % found,"Leptosphaeria nodorum; application rate 40 ppm, wheat, preventive, evaluated 8 days after inoculation",0%
"Cn1c(=O)c2sc3c(=O)n(C)c(=O)c3sc2c1=O [B15.60, 2,6-dimethyl-1H,5H-[1,4]dithiino[2,3-c:5,6-c′]dipyrrole-1,3,5,7(2H,6H)-tetrone]",pest or weed control at 50 ppm,"Alternaria solani; Alternaria solani, 72 h, Table 3d, 50 ppm, read-out: Efficacy in % found",0%
"O=C(NCc1ncc(C(F)(F)F)cc1Cl)c1c(Cl)cccc1Cl [B4.6, fluopicolide]",Efficacy in % found,"[2]; Table 6f, 400 ppm a.i.",13%
same,Efficacy in % found,"Phytophthora infestans; Table 1a, 1 ppm a.i.",13%
same,Efficacy in % found,"Leptosphaeria nodorum; Table 9c, 100 ppm a.i.",17%
"CC(C)CC(C)c1sccc1NC(=O)c1cn(C)nc1C(F)(F)F (centres unmarked) [B2.21, penthiopyrad]",pest or weed control at 80 ppm,"Puccinia triticina; Puccinia triticina, 192 h, application rate 80 ppm a.i., read-out: Efficacy in % found",78%
same,pest or weed control at 20 ppm,[1]; [3],13%
same,pest or weed control at 80 ppm,[1]; [4],0%
same,pest or weed control at 20 ppm,"[2]; Blumeria graminis, 168 h, Table 6a, 20 ppm a.i., read-out: Efficacy in % found",20%
same,pest or weed control at 0.5 ppm,"Sphaerotheca fuliginea; Podosphaera fuliginea, 168 h, Table 4d, 0.5 ppm a.i., read-out: Efficacy in % found",0%
same,pest or weed control at 0.5 ppm,"Venturia inaequalis; Venturia inaequalis, 240 h, read-out: Efficacy in % found, Table 2d, 0.5 ppm a.i.",0%
"Fc1ccc([C@]2(Cn3cncn3)O[C@H]2c2ccccc2Cl)cc1 (racemic) [B1.12, epoxiconazole]",pest or weed control at 10 ppm,Septoria tritici; [5],0%
same,pest or weed control at 40 ppm,[1]; [6],0%
same,pest or weed control at 10 ppm,"Leptosphaeria nodorum; Parastagonospora nodorum, 192 h, Table 9a, 10 ppm a.i., read-out: Efficacy in % found",0%
same,pest or weed control at 10 ppm,Leptosphaeria nodorum; [7],29%
"CC(C)c1ccc(F)cc1CN(C(=O)c1c(C(F)F)nn(C)c1F)C1CC1 [A7, N-cyclopropyl-3-(difluoromethyl)-5-fluoro-N-(5-fluoro-2-isopropylbenzyl)-1-methyl-1H-pyrazole-4-carboxamide]",pest or weed control at 10 ppm,Septoria tritici; [5],71%
"Cn1cc(C(=O)Nc2cccc3c2[C@@H]2CC[C@H]3C2=C(Cl)Cl)c(C(F)F)n1 (racemic) [B2.29, benzovindiflupyr]",Efficacy in % found,"Alternaria solani; Table 3e, 0.5 ppm",21%
same,Efficacy in % found,"[1]; Table 8f, 120 ppm a.i.",25%
same,Efficacy in % found,"Venturia inaequalis; Table 2e, 0.1 ppm a.i.",76%
"CCCCCCCCc1c(CC)nc2ncnn2c1N [B3.1, ametoctradin]",Efficacy in % found,"Phytophthora infestans; Table 1a, 5 ppm a.i.",48%
"Cc1ccc(C(C)C)c(CN(C(=O)c2c(C(F)F)nn(C)c2F)C2CC2)c1 [A12, N-cyclopropyl-3-(difluoromethyl)-5-fluoro-N-(2-isopropyl-5-methylbenzyl)-1-methyl-1H-pyrazole-4-carboxamide]",pest or weed control at 40 ppm,"Puccinia triticina; Puccinia triticina, 192 h, application rate 40 ppm a.i., read-out: Efficacy in % found",89%
same,pest or weed control at 10 ppm,[2]; [8],50%
"CCN(C)C=Nc1cc(C)c(Oc2nc(Cc3ccc(Cl)cc3)ns2)cc1C [B15.78, N′-(4-{[3-(4-chlorobenzyl)-1,2,4-thiadiazol-5-yl]oxy}-2,5-dimethylphenyl)-N-ethyl-N-methylimidoformamide]",pest or weed control at 62.5 ppm,"Puccinia triticina; Puccinia triticina, 192 h, application rate 62.5 ppm a.i., read-out: Efficacy in % found",57%
same,pest or weed control at 5 ppm,"Venturia inaequalis; Venturia inaequalis, 240 h, read-out: Efficacy in % found, Table 2f, 5 ppm a.i.",16%
"CC(C)(C)C(O)(CCc1ccc(Cl)cc1)Cn1cncn1 (centres unmarked) [B1.47, tebuconazole]",pest or weed control at 4 ppm,"Puccinia triticina; Puccinia triticina, 192 h, application rate 4 ppm a.i., read-out: Efficacy in % found",33%
same,pest or weed control at 40 ppm,"Septoria tritici; Zymoseptoria tritici, 504 h, application rate 40 ppm a.i., read-out: Efficacy in % found",71%
same,pest or weed control at 10 ppm,"[1]; read-out: Efficacy in % found, Table 8c, 10 ppm a.i.",25%
same,pest or weed control at 40 ppm,[1]; [6],0%
same,pest or weed control at 10 ppm,[2]; [8],50%
same,pest or weed control at 10 ppm,"[2]; Blumeria graminis, 168 h, Table 6d, 10 ppm, read-out: Efficacy in % found",33%
same,pest or weed control at 10 ppm,Leptosphaeria nodorum; [7],33%
"COCC(=O)N(c1c(C)cccc1C)[C@H](C)C(=O)OC [B12.10, mefenoxam]",Efficacy in % found,"[2]; Table 6f, 400 ppm a.i.",25%
same,Efficacy in % found,"Leptosphaeria nodorum; application rate 100 ppm, wheat, preventive, evaluated 8 days after inoculation",0%
propineb [B5.29],Efficacy in % found,"Alternaria solani; Table 3a, 50 ppm a.i.",33%
same,Efficacy in % found,"Alternaria solani; Table 3d, 50 ppm",0%
same,Efficacy in % found,"[2]; Table 6c, 400 ppm",13%
same,Efficacy in % found,"Phytophthora infestans; Table 1c, 50 ppm a.i.",50%
same,Efficacy in % found,"Sphaerotheca fuliginea; Table 4a, 50 ppm a.i.",0%
same,Efficacy in % found,"Sphaerotheca fuliginea; Table 4d, 50 ppm a.i.",70%
mancozeb [B5.23],Efficacy in % found,"Alternaria solani; Table 3a, 50 ppm a.i.",56%
same,Efficacy in % found,"Alternaria solani; Table 3d, 50 ppm",0%
same,Efficacy in % found,"[2]; Table 6c, 400 ppm",0%
same,Efficacy in % found,"Phytophthora infestans; Table 1c, 50 ppm a.i.",45%
same,Efficacy in % found,"Sphaerotheca fuliginea; Table 4a, 25 ppm a.i.",0%
same,Efficacy in % found,"Leptosphaeria nodorum; Table 9e, 100 ppm a.i.",0%
"N#Cc1ccccc1NC(=O)c1snc(Cl)c1Cl [B6.2, isotianil]",Efficacy in % found,"Alternaria solani; Table 3b, 50 ppm",27%
same,Efficacy in % found,"[2]; Table 6b, 100 ppm a.i.",38%
"N#Cc1c(Cl)c(Cl)c(Cl)c(C#N)c1Cl [B5.4, chlorothalonil]",pest or weed control at 50 ppm,"Alternaria solani; Alternaria solani, 72 h, Table 3a, 50 ppm a.i., read-out: Efficacy in % found",35%
same,pest or weed control at 50 ppm,Phytophthora infestans; [9],75%
same,pest or weed control at 12.5 ppm,"Venturia inaequalis; Venturia inaequalis, 240 h, read-out: Efficacy in % found, Table 2a, 12.5 ppm a.i.",35%
"CC1(C)CCC(Cc2ccc(Cl)cc2)C1(O)Cn1cncn1 (centres unmarked) [B1.30, metconazole]",pest or weed control at 20 ppm,"Puccinia triticina; Puccinia triticina, 192 h, application rate 20 ppm a.i., read-out: Efficacy in % found",44%
same,pest or weed control at 20 ppm,[1]; [3],13%
same,pest or weed control at 80 ppm,[1]; [4],0%
same,pest or weed control at 5 ppm,"Sphaerotheca fuliginea; Podosphaera fuliginea, 168 h, Table 4d, 5 ppm a.i., read-out: Efficacy in % found",77%
same,pest or weed control at 80 ppm,"Leptosphaeria nodorum; Parastagonospora nodorum, 192 h, application rate 80 ppm, wheat, preventive, evaluated 8 days after inoculation, read-out: Efficacy in % found",44%
same,pest or weed control at 1 ppm,"Venturia inaequalis; Venturia inaequalis, 240 h, read-out: Efficacy in % found, Table 2c",38%
"CCO[PH](=O)O [B15.24, fosetyl-Al]",Efficacy in % found,"Alternaria solani; Table 3a, 50 ppm a.i.",40%
same,Efficacy in % found,"Sphaerotheca fuliginea; Table 4a, 50 ppm a.i.",0%
same,Efficacy in % found,"Sphaerotheca fuliginea; Table 4d, 12.5 ppm a.i.",0%
same,Efficacy in % found,"Venturia inaequalis; Table 2a, 50 ppm a.i.",0%
propamocarb-HCl [B10.10],Efficacy in % found,"Alternaria solani; Table 3a, 50 ppm a.i.",0%
same,Efficacy in % found,"[2]; Table 6c, 400 ppm",13%
same,Efficacy in % found,"Sphaerotheca fuliginea; Table 4a, 50 ppm a.i.",0%
same,Efficacy in % found,"Sphaerotheca fuliginea; Table 4d, 50 ppm a.i.",70%
same,Efficacy in % found,"Venturia inaequalis; Table 2a, 50 ppm a.i.",0%
"Cn1cc(C(=O)Nc2ccccc2-c2cc(F)c(F)c(F)c2)c(C(F)F)n1 [B2.8, fluxapyroxad]",Efficacy in % found,Puccinia triticina; application rate 10 ppm a.i.,0%
same,Efficacy in % found,Puccinia triticina; application rate 40 ppm a.i.,67%
same,Efficacy in % found,Septoria tritici; application rate 10 ppm a.i.,0%
same,Efficacy in % found,"Sphaerotheca fuliginea; Table 4d, 0.5 ppm a.i.",0%
same,Efficacy in % found,"Leptosphaeria nodorum; application rate 10 ppm, wheat, preventive, evaluated 8 days after inoculation",0%
same,Efficacy in % found,"Venturia inaequalis; Table 2d, 0.25 ppm a.i.",19%
"CCCC1COC(Cn2cncn2)(c2ccc(Cl)cc2Cl)O1 (centres unmarked) [B1.40, propiconazole]",pest or weed control at 2 ppm,"Alternaria solani; Alternaria solani, 72 h, Table 3c, 2 ppm, read-out: Efficacy in % found",0%
same,pest or weed control at 20 ppm,"[1]; read-out: Efficacy in % found, Table 8b",0%
same,pest or weed control at 20 ppm,"Leptosphaeria nodorum; Parastagonospora nodorum, 192 h, application rate 20 ppm, wheat, preventive, evaluated 8 days after inoculation, read-out: Efficacy in % found",0%
"COC(=O)N(OC)c1ccccc1COc1ccn(-c2ccc(Cl)cc2)n1 [B3.17, pyraclostrobin]",pest or weed control at 40 ppm,"[1]; read-out: Efficacy in % found, Table 8a, 40 ppm",93%
same,pest or weed control at 10 ppm,"[1]; read-out: Efficacy in % found, Table 8e, 10 ppm a.i.",57%
same,pest or weed control at 10 ppm,"[1]; read-out: Efficacy in % found, Table 8d, 10 ppm a.i.",71%
same,pest or weed control at 40 ppm,"[2]; Blumeria graminis, 168 h, Table 6b, 40 ppm a.i., read-out: Efficacy in % found",20%
same,pest or weed control at 1 ppm,Phytophthora infestans; [9],53%
same,pest or weed control at 2 ppm,"Sphaerotheca fuliginea; Podosphaera fuliginea, 168 h, Table 4d, 2 ppm a.i., read-out: Efficacy in % found",0%
same,pest or weed control at 40 ppm,"Leptosphaeria nodorum; Parastagonospora nodorum, 192 h, application rate 40 ppm, wheat, preventive, evaluated 8 days after inoculation, read-out: Efficacy in % found",57%
same,pest or weed control at 1 ppm,"Venturia inaequalis; Venturia inaequalis, 240 h, read-out: Efficacy in % found, Table 2b",79%
